# Legend:
# Type in all cases: cell-based
# [1] = tested on: human cortical neurons; experiment: Aβ neurotoxicity in human cortical neurons (alamarBlue), 2 h pretreatment with inhibitor; conditions: Homo sapiens, Cortical neurone, 50 μM Aβ1-40, compound 390 nM to 100 μM, 2 h pretreatment and re-added with Aβ, 3 days, n=3
# Experimental: Cultures of human cortical or hippocampal neurons were prepared using a modification of the procedure described in P. Seubert et al. (1992), Nature 359:325-327. Cortical or hippocampal tissue was dissociated by incubation in a trypsin/EDTA solution (0.05% trypsin +0.53 mM EDTA in HBSS; Gibco) for 20 minutes at 37° C. The trypsin was then inactivated by resuspending the cells in serum-containing medium (MEM/FBS): Modified Eagle's Medium (MEM) containing 1% glucose, 1 mM sodium pyruvate, 1 mM glutamine, and supplemented with 10% fetal bovine serum (Gibco). Cells were then pelleted by centrifugation and resuspended in a chemically-defined medium (MEM/B27): MEM containing B27 supplement (Gibco) in place of FBS. Polyethyleneimine (PEI)-coated 6.4-mm (96-well) dishes were rinsed once with MEM/FBS, and then seeded at 0.75-1.25×10^5 cells per well in 0.1 ml MEM/B27. Cultures were maintained in a H2 O-saturated incubator with an atmosphere of 95% air/5% CO2 at 37° C. The culture medium was exchanged twice weekly.
# Amyloid-β (Aβ) stock solutions were prepared as 1 mM stocks in sterile ddH2 O immediately prior to addition to cultures. Rat cortical neurons were exposed to Aβ by removing the culture medium and replacing it with DMEM/N2 or DMEM/B27 containing Aβ1-40. Human cortical neurons were exposed to Aβ by removing the culture medium and replacing it with MEM, MEM/N2, or MEM/B27 containing Aβ1-40. Cultures were maintained for 2-4 days before neuronal survival was quantified using alamarBlue™.
# The alamarBlue™ assay incorporated a proprietary fluorometric/colorimetric metabolic indicator (Alamar Biosciences, Inc.). Viable cells convert alamarBlue™ from an oxidized (non-fluorescent, blue) form to a reduced (fluorescent, red) form. Assays were performed by replacing the culture media with a 10% alamarBlue™ solution in DMEM (rat cortical cultures) or MEM (human cortical cultures). Reduction of alamarBlue™ was determined spectrofluorometrically using a Millipore Cytofluor 2350 Scanner (excitation, […]; emission, 590 nm) and CytoCalc™ software (Millipore Corporation).
# The effect of pretreating human cortical neuron cultures with the benzenesulfonamide PLA2 inhibitors and arachidonyl trifluoromethyl ketone prior to exposure to a neurotoxic concentration of Aβ1-40 was determined.
# Human cortical neurons were treated with 50 μM Aβ1-40 and various inhibitors of PLA2. Compounds were added 2 hours prior to Aβ1-40 treatment at concentrations of 390 nM to 100 μM, and were then re-added at the time of Aβ1-40 treatment. Compounds were also added in an identical manner to neuronal cultures in the absence of Aβ1-40. Neuronal survival was determined after 3 days of treatment by alamarBlue®. IC50 is the dose of compound that inhibited Aβ-mediated neurotoxicity by 50%. […] Data represents the mean ± SD (n=3). ND, not detected at the concentration range used.
# [2] = tested on: IL-1β release by cultured human cortical microglia; experiment: IL-1 release from LPS-stimulated human cortical microglia
# Experimental: (§1) Cultures of human cortical or hippocampal astrocytes and microglia were prepared using a modification of the procedure described for cortical neurons. Cortical tissue from fetuses of 16 to 20 weeks of gestation was washed 3 times in Ca^2+ /Mg^2+ free Hanks balanced salt solution (CMF HBSS) and then dissociated by repeated pipetting. The solution was brought to a final volume of 80 ml CMF HBSS for approximately 10 ml of tissue. DNase (Sigma) was added to a final concentration of 0.05 mg/ml. 20 ml of the solution was passed through one 100 μm nylon cell strained (Falcon). The cells were then centrifuged for 5 minutes at 200×G in an IEC Clinical Centrifuge and resuspended in a trypsin/EDTA solution (0.05% trypsin+0.53 mM EDTA in HBSS; Gibco) and incubated for 20 minutes at 37°C. (10 ml of trypsin was added per 2-3 ml of tissue). The trypsin was then inactivated by adding (MEM/FBS): Modified Eagle's Medium (MEM) containing 1% glucose, 1 mM sodium pyruvate, 1 mM glutamine, and supplemented with 10% fetal bovine serum (JRH). After adding a final concentration of 0.05 mg/ml DNase the cells were resuspended and then pelleted by centrifugation and resuspended in MEM/FBS. 1.6×10^8 cells were seeded in a T-150 tissue culture flask coated with polyethyleneimine (PEI). (10% PEI (Sigma) was diluted 1:10 in H2 O, filtered through a […] unit and then diluted into 150 mM sodium borate pH 8.5 at 1:100. The flasks were coated overnight at room temperature, washed two times in PBS and coated with 20 ml/flask of MEM/FBS at 37° C. for at least one hour prior to plating cells.) Cultures were maintained in a H2 O-saturated incubator with an atmosphere of 95% air/5% CO2 at 37° C. The culture medium was changed one and four days after plating and the cultures were then left undisturbed for at least one week. After approximately two weeks in vitro, the flasks were gently shaken and floating microglia were collected and centrifuged for 5 minutes at 200×G in an IEC Clinical Centrifuge. The microglia were reseeded in 96 well tissue culture plates at a density of 5,000-40,000 cells/well in 125 μl in MEM/FBS. Astrocyte cultures were prepared by multiple passaging of the established mixed brain cell cultures. Each T-150 was incubated for 3-4 minutes at 37°C. with a trypsin/EDTA solution (see above). The trypsin was then inactivated by adding MEM/FBS. The cells were triturated and then pelleted by centrifugation and resuspended in MEM/FBS. The cells from one T-150 were seeded at a 1:30 to 1:5 dilution in T-150's not coated. Just prior to confluency the cells were repassaged by trypsinization as described above. This process was repeated until the cultures were >98% pure astrocytes.
# (§2) The effects of the benzenesulfonamide PLA2 inhibitor AN20606 and the selective cytosolic PLA2 inhibitor arachidonyl trifluoromethyl ketone (AN20579) were examined in cultured human cortical microglia for their selectivity for inhibiting microglia activation mediated by amyloid-βpeptide and lipopolysaccharides (LPS). LPS are a major constituent of the cell wall of gama-negative bacteria and are extensively used for generating inflammatory responses in cultured cells and in vivo.
# [3] = tested on: TNF-α release by cultured human cortical microglia; experiment: TNF-α release (ELISA) from Aβ1-40-stimulated human microglia
# Experimental: as §1
# Cultured microglial cells were treated with 50 μM of Aβ1-40 or vehicle only (Control). The levels of IL-1β, IL-6, and TNF-α released into the culture medium were determined by ELISA assay (R&D Systems) according to manufacturer's instructions.
# The effect of two benzenesulfonamide inhibitors of PLA2 (European Patent Application 468 054) were examined on the activation of microglial cells by Aβ1-40 as in Example 1.
# as §2
structure (smiles),measurement,setting,value
"CN(C(=O)/C=C/c1ccc(S(C)(=O)=O)cc1)c1ccc(S(=O)(=O)NC2CCCCCC2)cc1 [AN20606, N-cycloheptyl-4-[N-methyl-N-[(E)-3-(4-methylsulfonylphenyl)-2-propenoyl]amino]benzenesulfonamide]",Emax,"[1]; 72 h, read-out: Max Inh",89%
same,IC50,"[1]; ND = not detected at the concentration range used, read-out: IC50 (dose that inhibited Aβ-mediated neurotoxicity by 50%)",3000 nM
same,IL-1 Released,"[2]; 10 ng/ml LPS, inhibitor 20 μM where present",37 ± 0.3 pg/mL
same,activity at 20 µM,"[2]; Homo sapiens, Microglia, 10 ng/ml LPS + 20 μM inhibitor, read-out: IL-1 Released, percent in parentheses (relative to LPS alone)",163%
same,"LPS-mediated cytokine release, IL-1 (in words)",[2]; LPS stimulation,actually enhanced
same,amount of TNF-α released into the medium (in words),"[3]; 50 μM Aβ1-40, 1 day, compound 0, 5, 10, 20 μM, FIG. 2",marked and dose-dependent decrease
same,TNF Released,"[3]; 50 μM Aβ1-40, inhibitor 20 μM where present",3.7 ± 1.4 pg/mL
same,"Aβ1-40-mediated TNFα release, selectivity versus LPS (in words)",[3]; Aβ1-40 versus LPS stimulation,selectively inhibited
same,activity at 20 µM,"[3]; Homo sapiens, Microglia, 50 μM Aβ1-40 + 20 μM inhibitor, read-out: TNF Released, percent in parentheses (relative to Aβ1-40 alone)",4%
